How the values were obtained:
Human topoisomerase I = biological target: T1, Human topoisomerase I (Homo sapiens, UniProt P11387); assay: DNA relaxation assay (gel electrophoresis); format: biochemical; details: compounds at their IC50 values
T1 construct: purchased Topogen Inc., USA TG-1015
T1 sequence (P11387 1-765): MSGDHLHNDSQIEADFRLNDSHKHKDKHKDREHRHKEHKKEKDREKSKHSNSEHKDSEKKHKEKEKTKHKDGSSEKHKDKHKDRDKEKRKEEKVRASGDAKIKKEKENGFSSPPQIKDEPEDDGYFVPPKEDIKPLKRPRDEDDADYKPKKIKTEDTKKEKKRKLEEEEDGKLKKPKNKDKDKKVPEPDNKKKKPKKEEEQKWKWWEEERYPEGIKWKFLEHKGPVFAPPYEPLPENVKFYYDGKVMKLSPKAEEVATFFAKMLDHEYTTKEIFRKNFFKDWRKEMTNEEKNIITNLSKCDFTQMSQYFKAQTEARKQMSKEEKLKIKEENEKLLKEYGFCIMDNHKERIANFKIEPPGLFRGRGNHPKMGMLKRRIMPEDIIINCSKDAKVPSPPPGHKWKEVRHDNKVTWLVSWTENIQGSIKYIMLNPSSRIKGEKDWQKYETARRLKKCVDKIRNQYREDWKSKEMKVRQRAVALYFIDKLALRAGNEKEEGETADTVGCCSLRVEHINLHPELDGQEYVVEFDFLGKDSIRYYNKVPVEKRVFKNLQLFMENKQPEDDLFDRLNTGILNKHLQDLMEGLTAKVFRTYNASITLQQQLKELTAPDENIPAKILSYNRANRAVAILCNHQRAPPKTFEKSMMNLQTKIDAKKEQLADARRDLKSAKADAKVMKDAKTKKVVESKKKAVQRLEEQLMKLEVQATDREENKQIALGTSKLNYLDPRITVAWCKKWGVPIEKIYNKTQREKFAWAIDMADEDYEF
Experimental: Based on our design, we hypothesised that the new CP hybrids 4a-j could act as multi-target ligands that can block the catalytic activity of topoisomerases I (Topo-I), topoisomerases (Topo-II), and inhibit tubulin polymerisation as possible targets for the anti-proliferative activity. First, the Topo-I activity was tested by the DNA relaxation assay. The supercoiled plasmid has been utilised as a substrate in the relaxation assay to study the inhibition of DNA Topo-I activity. […] Two different assays were used to examine the inhibitory activity of IC50 of the CP hybrids against Human topoisomerase I. Firstly; Gel electrophoresis-based assay (DNA relaxation assay) was performed following the manufacturer's protocol (TG-1015, Topogen Inc., USA). Secondly, the inhibitory activity of compounds 4a, 4b, 4e, 4i, 4j, and camptothecin to human topoisomerase I was analysed by Human DNA Topoisomerase I Assay Kit (ProFoldin, Hudson, MA, USA) with recombinant human DNA topoisomerase I (Sigma-Aldrich) according to the manufacturer’s protocol.

[1] = biological target: T2, recombinant human DNA topoisomerase I (Homo sapiens, UniProt P11387); assay: Human DNA Topoisomerase I Assay Kit (ProFoldin); format: biochemical; details: compounds at their IC50 values, reference camptothecin
T2 construct: purchased Sigma-Aldrich
T2 sequence (P11387 1-765): T1 sequence (P11387 1-765)

Topo IIα = biological target: T3, Topo IIα (Homo sapiens, UniProt P11388); assay: Human Topoisomerase II assay kit (TG1001); format: biochemical; details: 10 µM
T3 construct: purchased Topogen Inc. TG1001
T3 sequence (P11388 whole entry): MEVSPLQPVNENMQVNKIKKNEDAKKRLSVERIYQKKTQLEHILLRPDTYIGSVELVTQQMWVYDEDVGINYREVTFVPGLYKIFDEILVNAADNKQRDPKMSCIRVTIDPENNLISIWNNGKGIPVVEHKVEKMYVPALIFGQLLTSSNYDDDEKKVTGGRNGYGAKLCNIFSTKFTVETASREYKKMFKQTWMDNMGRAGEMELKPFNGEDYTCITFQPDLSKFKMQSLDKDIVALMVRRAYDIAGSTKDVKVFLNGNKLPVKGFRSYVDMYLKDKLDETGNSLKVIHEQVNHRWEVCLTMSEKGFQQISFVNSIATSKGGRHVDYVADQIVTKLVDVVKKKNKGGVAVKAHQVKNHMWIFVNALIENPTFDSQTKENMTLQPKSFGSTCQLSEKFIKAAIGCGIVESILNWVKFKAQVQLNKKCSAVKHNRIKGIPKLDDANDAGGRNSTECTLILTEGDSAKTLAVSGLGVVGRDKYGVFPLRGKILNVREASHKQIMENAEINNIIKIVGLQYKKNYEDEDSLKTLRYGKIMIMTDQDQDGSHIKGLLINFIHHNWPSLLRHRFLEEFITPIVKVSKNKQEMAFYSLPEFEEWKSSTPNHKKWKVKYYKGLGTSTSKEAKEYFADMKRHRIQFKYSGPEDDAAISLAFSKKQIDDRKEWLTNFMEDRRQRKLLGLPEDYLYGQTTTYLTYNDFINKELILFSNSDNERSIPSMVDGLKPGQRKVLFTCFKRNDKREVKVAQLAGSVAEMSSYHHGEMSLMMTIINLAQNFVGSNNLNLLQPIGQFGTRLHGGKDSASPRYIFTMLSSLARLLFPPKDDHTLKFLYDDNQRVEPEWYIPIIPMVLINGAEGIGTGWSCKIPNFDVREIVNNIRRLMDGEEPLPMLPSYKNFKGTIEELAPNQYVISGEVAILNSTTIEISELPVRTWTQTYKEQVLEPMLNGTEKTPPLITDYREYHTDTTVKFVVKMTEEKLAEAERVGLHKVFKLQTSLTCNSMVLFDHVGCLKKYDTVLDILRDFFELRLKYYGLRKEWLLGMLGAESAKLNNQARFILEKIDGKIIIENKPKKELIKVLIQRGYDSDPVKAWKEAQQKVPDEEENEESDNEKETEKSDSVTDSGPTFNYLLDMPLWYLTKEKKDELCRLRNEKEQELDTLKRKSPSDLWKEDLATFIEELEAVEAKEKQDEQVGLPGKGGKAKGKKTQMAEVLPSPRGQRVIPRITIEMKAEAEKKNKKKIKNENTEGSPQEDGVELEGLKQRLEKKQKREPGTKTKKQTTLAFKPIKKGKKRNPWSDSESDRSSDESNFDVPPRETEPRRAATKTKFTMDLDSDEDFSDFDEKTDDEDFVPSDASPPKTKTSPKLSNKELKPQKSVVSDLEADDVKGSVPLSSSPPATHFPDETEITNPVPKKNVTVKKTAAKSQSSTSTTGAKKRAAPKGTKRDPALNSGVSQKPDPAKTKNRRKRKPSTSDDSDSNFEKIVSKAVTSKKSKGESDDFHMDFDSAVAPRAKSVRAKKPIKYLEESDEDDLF
Experimental: Second, the inhibitory activity of Topo IIα was evaluated for compounds 4a, 4b, 4e, 4i, and 4j utilising Human Topoisomerase II assay kit (TG1001, Topogen Inc.). […] The above results are compatible with our design of these hybrids as Top-II inhibitors.
The inhibitory activity of the selected ciprofloxacin hybrids on human Top-II was tested using a Human Topoisomerase II assay kit (TG1001, Topogen Inc.). In this assay, 1% agarose gel was used, and the compounds were tested at two different concentrations, 10 and 100 µM. Also, etoposide was used as a positive control in this experiment. The assay was performed according to the manufacturer’s protocol. The image of the electrophoretic gel was captured using an imaging system (iBright-CL1500, Thermo Fisher Scientific).

tubulin polymerisation = assay: Tubulin immunofluorescence microscopy in HCT116 cells; format: cell-based, human; details: HCT116, IC50 of compound, 36 h
Experimental: (§1) The process of tubulin polymerisation in the cells is important for the completion of mitosis and is targeted for cancer treatment. It has been reported that the suppression of tubulin polymerisation will arrest the cells at the G2/M and it eventually leads to cell death. To test the tubulin-disruptive effect of the CP hybrids, HCT116 cells were analysed by immunocytochemistry. HCT116 cells were incubated for 36 h with IC50 of the CP hybrids (4a, 4b, 4e, 4i, and 4j), nocodazole (a well-known tubulin polymerisation inhibitor, as a positive control), DMSO or Paclitaxel (a well-known tubulin polymerisation inducer, as a negative control), and tubulin was visualised by immunofluorescence microscopy. An antibody for α-tubulin was used. […] Moreover, a Western blot was performed to verify the tubulin polymerisation inhibition ability of the synthesised compounds (Figure 8(B)). The level of polymerised tubulin was decreased in HCT116 cells treated with IC50 values of CP hybrids 4a, 4b, 4e, 4i, 4j, or nocodazole.
(§2) HCT116 cells were cultured and treated with the IC50 of the potent compounds (4a, 4b, 4e, 4i, and 4j) or DMSO (control), fixed, permeabilized, and they were incubated with either γH2AX or α-tubulin antibody as the reported procedure in the literature. Confocal images were captured using a Confocal Microscope with a 63X objective. All images were processed using ImageJ software. See Supplementary Appendix A.

polymerised tubulin = assay: Western blot of polymerised tubulin in HCT116 cells; format: cell-based, human; details: HCT116, IC50 values of compounds
Experimental: as §1
(§3) Western blotting analysis for HCT116 cells was performed according to the reported procedure in the literature[77–79] to determine the effects of CP hybrids; 4a, 4b, 4e, 4i, and 4j on the expression of polymerised tubulin, γH2AX, p-ATR, p-CHK1, and p-Cdc25C by using the appropriate antibody. See Supplementary Appendix A.

γH2AX [2] = assay: γH2AX immunofluorescence in HCT116 cells; format: cell-based, human; details: HCT116, IC50 of compound
Description: (§4) DNA damage is a major reason for inhibiting proliferation and inducing cytotoxicity in cancer cells as well as the main downstream cascade for the Topo-I, Top-II, and tubulin polymerisation inhibition. The phosphorylation of the histone H2AX always occurs after DNA damage forming double-stranded breaks (DSBs). Therefore, we tested the capability of the potent prepared compounds to trigger DNA double strand breaks through detection of the phosphorylation of γH2AX using two different techniques, Immunofluorescence, and western blotting.
as §2

γH2AX [3] = assay: γH2AX western blotting in HCT116 cells; format: cell-based, human; details: HCT116, IC50 of compound, versus control cells
Description: as §4, §3

Compound: O=C(/C=C/c1ccccc1)c1ccc(-n2cc(CN3CCN(c4cc5c(cc4F)c(=O)c(C(=O)O)cn5C4CC4)CC3)nn2)cc1 [Compound 4a, (E) 7-(4-((1–(4-Cinnamoylphenyl)-1H-1,2,3-triazol-4-yl)methyl)piperazin-1-yl)-1-cyclopropyl-6-fluoro-4-oxo-1,4-dihydroquinoline-3-carboxylic acid]
- Topo-I catalytic activity, DNA relaxation (Human topoisomerase I): could inhibit Topo-I catalytic activity
- Top-I inhibitory activity, enzyme assay kit [1]: highest Top-I inhibitory activity
- Topo-II inhibitory activity (Topo IIα): stronger inhibitory activity than 4b, 4i, and ETO
- tubulin polymerisation, morphological changes by immunofluorescence (tubulin polymerisation): significant tubulin polymerisation inhibition
- level of polymerised tubulin, Western blot (polymerised tubulin): decreased
- γH2AX foci formation (γH2AX [2]): induced γH2AX foci formation
- γH2AX protein expression, western blotting (γH2AX [3]): increases in the γH2AX protein expression
